Measurements taken from patent US9816998B2, “Circulating exosomes as diagnostic/prognostic indicators and therapeutic targets of melanoma and other cancers” (Cornell University, priority 2011, dated 2017).

Tested on: HGF/MET signaling
Experiment: BM cell response to HGF after exosome pre-treatment: western blot of phospho-S6 kinase and phospho-ERK
Format: cell-based, mice
Conditions: 20 nM, before HGF addition
Excerpt: Mice were sacrificed and BM was isolated by flushing the femur and tibia with staining media (1% BSA in PBS) using a 25G½″ needle (BD) and further disrupting it by pipeting. Cell suspensions were filtered through 70 μm cell strainers (BD) prior to centrifugation. Red blood cells (RBC) from BM suspensions were lysed using ACK Lysis Buffer (Invitrogen). To enrich for progenitors, lineage positive (Lin^+, i.e., CD5, CD45R, CD19, CD11b, Ly6G/C, 7-4, TER119 positive) BM cells were immunomagnetically depleted using the EasySep® Mouse Hematopoietic Progenitor Cell Enrichment Kit (Stem Cell Technologies) as per manufacturer's instructions. For in vitro BM treatment with exosomes, BM cells were flushed as above and cultured in Stem Span (Stem Cell Technologies) for 16 hours in the presence or absence of 20 μg/ml indicated exosomes. For HGF analysis BM cells were then stimulated with 5 ng/ml HGF (Peprotech) for 4 hours and collected for Western blot analysis in RIPA buffer as indicated below by adding phosphatase inhibitors (1 mM Sodium orthovanadate and 5 mM β-Glycerol phosphate). For MET signaling inhibition, cells were incubated with 20 nM Crizotinib (Selleck Bio) 1 hour before HGF stimulation.
Exosomes or cells were lysed with RIPA buffer containing a complete protease inhibitor tablet (Roche). Lysates were cleared by centrifugation at 14,000×g for 20 min. […]

In the case of `C[C@@H](Oc1cc(-c2cnn(C3CCNCC3)c2)cnc1N)c1c(Cl)ccc(F)c1Cl` [Crizotinib], the “Phosphorylation of ERK after F10 exosome treatment” value is reported as “blocked the phosphorylation” and the “Phosphorylation of S6-kinase after F10 exosome treatment” value is reported as “blocked the phosphorylation”.
